PubChem BioAssay AID2060501 (Molecular Pharmacology Branch, DTP, NCI, 2025)

System: 282377-053-R-J1-PDC complex spheroids, viability
Assay: Anticancer human tumor 282377-053-R-J1-PDC patient-derived colon adenocarcinoma cell line growth inhibition [GQUAD]
Conditions: for IC50: curve of first compound; for viability, T/C: stronger effect = lower value
Text: DNA G-quadruplex Stabilizer Agents in Combinations in Complex Spheroids
A high-throughput screen of multi-cell type tumor spheroids was designed to identify active combinations of DNA G-quadruplex stabilizer agents and targeted small molecules. Complex spheroids include a stromal component modeled by human endothelial cells (HUVEC) and fibroblasts modeled by human mesenchymal stem cells (MSCs). The concentration ranges selected for each drug and investigational agent were based upon clinically achievable concentrations if the clinical Cmax of the agent was known.
Compounds. The drugs and investigational agents: pidnarulex (CX-5461; NSC782164), APTO-253 (NSC789042), BRACO-19 (NSC847499), peposertib (NSC802822), ceralasertib (NSC780249), elimusertib (NSC800525), camonsertib (NSC841442), AZD-1390 (NSC803789), olaparib (NSC753686), talazoparib (NSC767125), ART-558 (NSC835418), sotorasib (NSC818433), MRTX-1133 (NSC836407), SN-38 (NSC673596), topotecan (NSC609699), etoposide (NSC141540), doxorubicin (NSC123127), gemcitabine (NSC613327), 5-fluorouracil (NSC19893), paclitaxel (NSC125973), vemurafenib (NSC761431), panobinostat (NSC761190), R-306465 (JNJ-16241199; NSC773264), adavosertib (NSC754352), TP-3654 (NSC805149), carboplatin (NSC241240), KSQ-4279 (NSC840948), and staurosporine (NSC755774) were obtained from the National Cancer Institute (NCI) Developmental Therapeutics Program Chemical Repository (34). The FDA-approved anticancer drug set is available from the NCI Developmental Therapeutics Program. […] The stock solutions were prepared in dimethyl sulfoxide (DMSO, Sigma-Aldrich, St. Louis, MO, cat. D2650) at 800-fold the tested concentration and stored at -70 degrees C prior to their use. All drugs and investigational agents were tested over a range starting from a high concentration at or near the clinical Cmax and decreasing in half-log increments. If the clinical Cmax for an agent had not been determined, the highest concentration tested was 10 microM.
2.3 Cell Culture. All cells were maintained in an incubator at 37 degrees C and 5% CO2 with 95% humidity. The PDC lines were cultured according to standard operating procedures established by the NCI PDMR. All PDCs were thawed and cultured in Matrigel-coated flasks prepared with a working solution of 1X Ham's F-12 nutrient mix, without supplementation (Invitrogen, cat. 11765054), 100 U/mL penicillin-streptomycin (Invitrogen, cat. 15140122), and 2.5% Matrigel (Corning Inc., cat. 354248) for the first three passages. The 857933-349-R-J2-PDC line was cultured in 6C/Colon 1B media, which includes advanced DMEM/F-12 (Thermo Fisher Scientific, cat. 12634028), 10 mM HEPES (Thermo Fisher Scientific, cat. 15630080), 1X GlutaMAX supplement (Thermo Fisher Scientific, cat. 35050061), 0.1 mg/mL primocin (InvivoGen, cat. ant-pm-2), 10% defined fetal bovine serum, heat inactivated (HyClone Laboratories Inc., cat. SH30070.03HI), 50% L-WRN conditioned media (ATCC, cat. CRL-3276), 1.25 mM N-Acetyl-L-cysteine (Sigma-Aldrich, cat. A9165), 10 mM nicotinamide (Sigma-Aldrich, cat. N0636), 1X B-27 supplement (Thermo Fisher Scientific, cat. 17504044), 1X N-2 supplement (Thermo Fisher Scientific, cat. 17502048), 10 microM Y-27632 dihydrochloride (Tocris Bioscience, cat. 1254), and 50 ng/mL human EGF recombinant protein (Thermo Fisher Scientific, cat. PHG0311). The 485176-168-R4-J1-PDC line was cultured in Panc media, which includes all 6C/Colon 1B media components plus 100 ng/mL human FGF-10 (Thermo Fisher Scientific, cat. 100-26), 500 nM SB-431542 (Selleckchem, cat. S1067), and gastrin (Tocris, cat. 3006).
[…]
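Also: spheroids exposed to compounds for 7 days before readout.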
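For viability, T/C in this document: percent of vehicle DMSO control viability with 100% = untreated-like growth.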

SMILES: Cc1cccc(N(C)C(=O)C2C(O)CCN2c2nc(C)cc(C(F)(F)F)c2C#N)c1 (configuration not stated) + Cc1[nH]c2ccc(F)cc2c1-c1nc2c3cccnc3c3ncccc3c2[nH]1
- IC50 (second compound 0.0316 µM): > 10 µM
- IC50 (second compound 0.1 µM): > 10 µM
- IC50 (second compound 0.316 µM): > 10 µM
- IC50 (second compound 1 µM): > 10 µM
- IC50 (second compound 3.16 µM): > 10 µM
- IC50 (second compound 10 µM): 0.567 µM
- viability, T/C (second compound 0.0316 µM, first compound 0.0316 µM): 89.3%
- viability, T/C (second compound 0.0316 µM, first compound 0.1 µM): 94.1%
- viability, T/C (second compound 0.0316 µM, first compound 0.316 µM): 113%
- viability, T/C (second compound 0.0316 µM, first compound 1 µM): 95.9%
- viability, T/C (second compound 0.0316 µM, first compound 3.16 µM): 100%
- viability, T/C (second compound 0.0316 µM, first compound 10 µM): 76.2%
- viability, T/C (second compound 0.1 µM, first compound 0.0316 µM): 95.7%
- viability, T/C (second compound 0.1 µM, first compound 0.1 µM): 91.3%
- viability, T/C (second compound 0.1 µM, first compound 0.316 µM): 83.5%
- viability, T/C (second compound 0.1 µM, first compound 1 µM): 109%
- viability, T/C (second compound 0.1 µM, first compound 3.16 µM): 82.8%
- viability, T/C (second compound 0.1 µM, first compound 10 µM): 94.6%
- viability, T/C (second compound 0.316 µM, first compound 0.0316 µM): 77.2%
- viability, T/C (second compound 0.316 µM, first compound 0.1 µM): 100%
- viability, T/C (second compound 0.316 µM, first compound 0.316 µM): 92.1%
- viability, T/C (second compound 0.316 µM, first compound 1 µM): 92.8%
- viability, T/C (second compound 0.316 µM, first compound 3.16 µM): 93%
- viability, T/C (second compound 0.316 µM, first compound 10 µM): 114%
- viability, T/C (second compound 1 µM, first compound 0.0316 µM): 86%
- viability, T/C (second compound 1 µM, first compound 0.1 µM): 88.3%
- viability, T/C (second compound 1 µM, first compound 0.316 µM): 94.6%
- viability, T/C (second compound 1 µM, first compound 1 µM): 109%
- viability, T/C (second compound 1 µM, first compound 3.16 µM): 86.2%
- viability, T/C (second compound 1 µM, first compound 10 µM): 89.6%
- viability, T/C (second compound 3.16 µM, first compound 0.0316 µM): 78%
- viability, T/C (second compound 3.16 µM, first compound 0.1 µM): 73%
- viability, T/C (second compound 3.16 µM, first compound 0.316 µM): 66.8%
- viability, T/C (second compound 3.16 µM, first compound 1 µM): 65.7%
- viability, T/C (second compound 3.16 µM, first compound 3.16 µM): 75.5%
- viability, T/C (second compound 3.16 µM, first compound 10 µM): 79.3%
- viability, T/C (second compound 10 µM, first compound 0.0316 µM): 47%
- viability, T/C (second compound 10 µM, first compound 0.1 µM): 56.4%
- viability, T/C (second compound 10 µM, first compound 0.316 µM): 66.4%
- viability, T/C (second compound 10 µM, first compound 1 µM): 43.6%
- viability, T/C (second compound 10 µM, first compound 3.16 µM): 36.8%
- viability, T/C (second compound 10 µM, first compound 10 µM): 35%
